From patent US11318190B2, “Methods and compositions for treating liver disease” (UNITED STATES GOVERNMENT AS REPRESENTED BY THE DEPARTMENT …, priority 2017, dated 2022)

What was measured:
[1] = system: human hepatic stellate cells (hHSC); experiment: hHSC activation by cholangiocyte supernatants from treated mice (qPCR); assay type: cell-based
Description: In vitro experiments were performed in human hepatic stellate cells (hHSC) that were purchased from ScienCell Research Laboratories (Carlsbad, Calif.) that were maintained in standard conditions.
[…] Activation of hHSCs was determined by qPCR for FN-1, TGF-β1, α-SMA, and collagen type-1a (Kennedy, L L et al., Knockout of microRNA-21 reduces biliary hyperplasia and liver fibrosis in cholestatic bile duct ligated mice, Lab Invest 96:1256-1267 (2016)).

Mdr2−/− mice = conditions: cited from earlier work
dnTGF-βRII mice [2] = experiment: dnTGF-βRII mice 12 wk (early stage PBC model) treated 1 wk by osmotic minipump; assay type: in vivo, mouse; conditions: dnTGF-βRII 12 wk; for intrahepatic bile duct mass (IBDM, CK-19): 1 wk minipump
Description: (§1) Briefly, we used wild-type (WT), dnTGFβRII 12 wk and dnTGFβRII 34 wk mice treated with control or SR antagonist (SCT 5-27) minipump (10 μg/kg/day) for 1 wk. Hepatic damage was shown by H&E. IBDM and cholangiocyte proliferation were measured by immunohistochemistry for CK-19 and Ki67, respectively. Biliary apoptosis was evaluated by TUNEL staining. Senescence was measured in cholangiocytes by immunofluorescence for CCL2 or p16 co-stained with CK-19 (to image bile ducts) and SA-β-Galactosidase activity. Hepatic fibrosis was assessed by qPCR for collagen-1a and α-SMA in total liver, and quantification of Sirius Red staining. Hepatic stellate cell (HSC) activation was evaluated by immunofluorescence (IF) for Syp-9. HSC senescence was evaluated by IF for CCL2 or p16 co-stained with desmin (to visualize HSCs). Secretin levels in serum and bile were measured by EIA. Bile and serum were obtained from human control, early PBC and advanced PBC patients, and secretin was evaluated by EIA.
(§2) All animal procedures were performed according to protocols approved by the Baylor Scott & White Health IACUC Committee. Transgenic mice expressing a dominant-negative form of the human transforming growth factor-beta receptor II (dnTGF-βRII) were obtained from Dr. M. Eric Gershwin at UC Davis Health (Sacramento, Calif.), and background-matched wild-type (WT, strain C57BL/6) mice were purchased from Charles River Laboratories (Wilmington, Mass.); the breeding colony is established in our animal facility. Animals were maintained in micro-isolator cages in a temperature-controlled environment with 12/12-hr light/dark cycles and fed ad libitum standard chow with free access to drinking water. Studies were performed in 12 wk-old WT mice, and 12 wk-old (mimic early stage PBC) and 32 wk-old (mimic late stage PBC) female and male dnTGF-βRII mice (25-30 gm) that were treated with either saline, secretin (Sct; 2.5 nmoles/kg body weight per day; Bachem, Torrance, Calif.) or the secretin receptor (SR) antagonist, Sec 5-27 (10 μg/kg body weight per day; Thermo Fisher Scientific, Waltham, Mass.) for 1 wk by intraperitoneally implanted osmotic minipump. Liver tissue samples and blocks (formalin-fixed, paraffin-embedded and OCT-embedded), serum, bile, cholangiocytes, and cholangiocyte supernatants (after incubation at 37° C. for 4 hr) were collected as described.
(§3) Hematoxylin and eosin (H&E) staining was performed in formalin-fixed, paraffin-embedded liver sections (4-5 μm, 3 samples from 3 different animals) to determine liver morphology. H&E stained liver sections were evaluated by a board-certified pathologist to assess the degree of lobular damage, hepatic necrosis and portal inflammation. At least 10 different portal areas were evaluated for each parameter. Liver sections were examined in a coded fashion by BX-51 light microscopy (Olympus, Tokyo, Japan) equipped with a camera (See, Mancinelli, R et al., Ischemia reperfusion of the hepatic artery induces the functional damage of large bile ducts by changes in the expression of angiogenic factors. Am J Physiol Gastrointest Liver Physiol 2015; 309:G865-873 (2015); Taffetani S et al., Prolactin stimulates the proliferation of normal female cholangiocytes by differential regulation of Ca2+-dependent PKC isoforms, BMC Physiol 7:6 (2007)).
(§4) Serum levels of alkaline phosphatase (ALP) and γ-glutamyltransferase (γGT) are commonly used to diagnose PBC (Heathcote, E J, Management of primary biliary cirrhosis. The American Association for the Study of Liver Diseases practice guidelines, Hepatology 31:1005-1013 (2000)); therefore, were measured serum levels of ALP and γGT in mouse serum samples using the Alkaline Phosphatase Assay Kit and γ-Glutamyltransferase Activity Colorimetric Assay Kit, respectively (Abcam; Cambridge, Mass.).
(§5) Early stage PBC is identified by cholangiocyte proliferation, whereas late stage PBC is characterized by ductopenia. […]

dnTGF-βRII mice [3] = experiment: dnTGF-βRII mice 32-34 wk (late stage PBC model) treated 1 wk by osmotic minipump; assay type: in vivo, mouse; conditions: for intrahepatic bile duct mass (IBDM, CK-19): 1 wk minipump
Description: as §1, §2, §3, §4, §5

HHSteCs [4] = experiment: HHSteCs incubated with biliary/IMCL supernatants with/without LY2109761, or with TGF-β1 (Example 2); assay type: cell-based, human; conditions: direct TGF-β1 10 nM, 24 hr
Description: (§6) Biliary supernatants were obtained from normal and BDL WT mice and Sct^−/−, SR^−/− and Sct^−/−/SR^−/− BDL mice as well as normal WT mice treated with saline or secretin. HHSteCs were incubated with the aforementioned biliary supernatants (containing different levels of TGF-β1) for 24 hr (in the absence or presence of LY2109761) before measuring the expression of senescence and fibrosis genes by real-time PCR. Furthermore, HHSteCs were incubated with the supernatant of large IMCLs treated for 0.2% bovine serum albumin (basal) or secretin (10 nM) with/without LY2109761 for 6 hr before measuring the mRNA expression of fibrosis and senescence genes. To provide direct evidence that TGF-β1 directly modulates fibrosis and senescence of IMCLs and HHSteCs, these cells were stimulated with TGF-β1 (10 nM) for 24 hr before measuring the expression of PCNA as well as fibrosis and senescence genes by real-time PCR.

IMCLs = IMCLs treated with Sct with/without microRNA 125b mimic precursor, TGF-β1 or r-VEGFA (Example 4); assay type: cell-based, mouse; conditions: TGF-β1 10 nM or r-VEGFA 100 nM, 12 hr
Description: (§7) Cholangiocytes were obtained by immunoaffinity separation, Cholangiocytes were obtained by immunoaffinity separation as described herein above, using a monoclonal antibody (a gift from Dr. R. Faris, Brown University, Providence, R.I.) that is expressed by all intrahepatic cholangiocytes. Cell viability (greater than 97%) was assessed by trypan blue exclusion. HSCs were isolated by LCM as described herein above. Frozen liver sections (n=3, 10 μm thick) were incubated overnight with an antibody against desmin (marker of stellate cells). Following staining, desmin-positive HSCs were dissected from the slides by a LCM system Leica LMD7000 (Buffalo Grove, Ill.) and collected into a PCR tube before being analyzed. The RNA from HSCs was extracted with the Arcturus PicoPure RNA isolation kit (Thermo Fisher Scientific CO, Mountain View, Calif.). The in vitro studies were performed in our immortalized murine biliary cell lines (IMCLs) and human hepatic stellate cell lines (HHSteCs, Sciencell, Carlsbad, USA).
In biliary supernatants, the levels of TGF-β1 were measured by ELISA kits. […] We also evaluated by immunofluorescence the expression of VEGFR-2 in cell smears of IMCLs and HHSteCs. […]

large IMCLs = experiment: Large IMCLs treated with secretin with/without LY2109761, or with TGF-β1 (Example 2); assay type: cell-based, mouse; conditions: TGF-β1 10 nM, 24 hr
From the text: Cholangiocytes were obtained by immunoaffinity separation as described herein above, using a monoclonal antibody (a gift from Dr. R. Faris, Brown University, Providence, R.I.) that is expressed by all intrahepatic cholangiocytes. HSCs from the selected groups of mice were isolated by LCM as described previously in Wu, N et al., The secretin/secretin receptor axis modulates liver fibrosis through changes in transforming growth factor-beta1 biliary secretion in mice, Hepatology (Baltimore, Md.) 64(3):865-879 (2016). Briefly, frozen liver sections (n=3, 10 μm thick) were incubated overnight with an anti-desmin (a marker of stellate cells) antibody. Then, desmin-positive cells were dissected from the slides using a LCM system Leica LMD7000 (Buffalo Grove, Ill.) and were collected before RNA extraction with the Arcturus PicoPure RNA isolation kit (Thermo Fisher Scientific CO, Mountain View, Calif.). The in vitro studies were performed in: (I) immortalized murine cholangiocyte lines derived from large cholangiocytes lining large ducts (IMCLs); and (ii) human hepatic stellate cell lines (HHSteCs; ScienCell Research Laboratories, Carlsbad, Calif.).
WT mice were treated for 1 wk with saline or secretin (Sct; 2.5 nmoles/kg body weight per day) before collecting cholangiocytes, HSCs and cholangiocyte supernatants. The levels of TGF-β1 were measured in short-term (6-hour) cultures of cholangiocytes by ELISA kits. Subsequently, we measured: (i) liver fibrosis by immunofluorescence for Col1a1 in liver sections and real-time PCR for TGF-β1, TFG-β1R, Col1a1, α-SMA and Fn1 in cholangiocytes and HSCs; and (ii) cellular senescence by immunofluorescence in liver sections for p16 and real-time PCR for p16 and p21 in cholangiocytes and HSC.
as §6

HHSteCs [5] = experiment: HHSteCs treated with cholangiocyte supernatants with/without LY2109761, TGF-β1 or r-VEGFA (Example 4); assay type: cell-based, human; conditions: TGF-β1 10 nM or r-VEGFA 100 nM, 12 hr
Description: as §7
In biliary supernatants, the levels of TGF-β1 were measured by ELISA kits. HHSteCs were incubated with cholangiocyte supernatants from the selected groups of animals for 12 hr (in the absence or presence of LY2109761, 10 μM, a TGF-β1 receptor antagonist, Cayman Chemical, Ann Arbor, Mich.) before measuring the expression of VEGF-A and senescent and fibrosis genes by qPCR. To determine that Sct increases TGF-β1 levels by a microRNA 125b-dependent mechanism, IMCLs were treated with Sct (10 nM in the absence/presence of a microRNA 125b mimic precursor, 5 μM) for 12 hr before measuring TGF-β1 mRNA expression (by qPCR) and secretion by ELISA kits. To provide conclusive evidence that TGF-β1 directly modulates the function IMCLs and HHSteCs, these cells were stimulated with TGF-β1 (10 nM) for 12 hr before measuring the expression of VEGF-A and senescent and fibrosis genes by qPCR. […] We also evaluated by immunofluorescence the expression of VEGFR-2 in cell smears of IMCLs and HHSteCs. […]

[6] = vs saline treated, listed as SR antagonist
[7] = dnTGF-βRII 32/34 wk, vs saline treated
[8] = dnTGF-βRII 32/34 wk, listed as SR antagonist

## 15-lysine-secretin-(5-27) [SCT 5-27]
[1]; cholangiocyte supernatants from treated dnTGF-βRII mice 12 wks
  expression of FN-1, TGF-β1, α-SMA and collagen type-1a in hHSCs: reduced
[1]; cholangiocyte supernatants from treated dnTGF-βRII mice 34 wks
  expression of FN-1, TGF-β1, α-SMA and collagen type-1a in hHSCs: enhanced
Mdr2−/− mice; BDL and Mdr2−/− mouse model of PSC
  hepatic fibrosis and HSC activation: reduced
Mdr2−/− mice; Mdr2−/− mice
  TGF-β1/TGF-β1 receptor axis expression: decreased
  biliary mass and HSCs activation: reduced
dnTGF-βRII mice [2]
  HSC activation (SYP-9 staining): reduced
  HSC senescence: increased
  biliary senescence (p16, p18, p21, CCL2): reduced
  cholangiocyte apoptosis (TUNEL-positive cholangiocytes): enhanced
  cholangiocyte proliferation (Ki67): reduced
  liver damage (H&E: portal inflammation, inflammatory infiltration, lobular necrosis): reduced
  secretin levels (serum and bile, EIA): reduced
dnTGF-βRII mice [2]; vs saline treated
  Sct, SR, CFTR and AE2 expression: reduced
  collagen content / deposition (Sirius Red), hepatic fibrosis: significantly reduced
  serum levels of ALP and γGT: reduced
  intrahepatic bile duct mass (IBDM, CK-19): significantly reduced
dnTGF-βRII mice [2]; [6]
  intrahepatic bile duct mass (IBDM, CK-19): reduced
  collagen content / deposition (Sirius Red), hepatic fibrosis: ameliorated
dnTGF-βRII mice [2]; listed as SR antagonist
  biliary senescence (p16, p18, p21, CCL2): decreased
  cholangiocyte apoptosis (TUNEL-positive cholangiocytes): increased
  liver damage (H&E: portal inflammation, inflammatory infiltration, lobular necrosis): ameliorated
dnTGF-βRII mice [3]; dnTGF-βRII 32/34 wk
  biliary senescence (p16, p18, p21, CCL2): further increased
  cholangiocyte apoptosis (TUNEL): further increased
  collagen content / deposition (Sirius Red), hepatic fibrosis: increased
dnTGF-βRII mice [3]; [7]
  Sct, SR, CFTR and AE2 expression: further decrease
  intrahepatic bile duct mass (IBDM, CK-19): further reduced
dnTGF-βRII mice [3]; dnTGF-βRII 32/34 wk, vs saline treated, listed as SR antagonist
  intrahepatic bile duct mass (IBDM, CK-19): decreased
dnTGF-βRII mice [3]; [8]
  biliary senescence (p16, p18, p21, CCL2): increased
  cholangiocyte apoptosis (TUNEL): exacerbated
  collagen content / deposition (Sirius Red), hepatic fibrosis: further increased
dnTGF-βRII mice [3]; dnTGF-βRII 34 wk
  HSC activation (SYP-9): increased
  biliary growth / cholangiocyte proliferation: further reduced
  liver damage (H&E): exacerbated
  secretin levels (serum; serum and bile): reduced
dnTGF-βRII mice [3]; dnTGF-βRII 34 wk, listed as SR antagonist
  HSC activation (SYP-9): enhanced

## TGF-β1: transforming growth factor-β1 used to stimulate IMCLs and HHSteCs (10 nM)
HHSteCs [4]
  fibrosis gene expression in HHSteCs: stimulates
  senescence gene expression in HHSteCs: reduces
IMCLs
  expression of VEGF-A, fibrosis and senescence genes in IMCLs: increased
Large IMCLs
  PCNA mRNA expression of large IMCLs: decreased
  expression of fibrosis and senescence genes of large IMCLs: increased
HHSteCs [5]
  expression of VEGF-A, fibrosis genes in HHSteCs: increased
  senescence genes in HHSteCs: decreased
